The record followed here is ChEMBL document CHEMBL1148501, “Synthesis of pyrazoles and isoxazoles as potent alpha(v)beta3 receptor antagonists” (Bioorg Med Chem Lett, 2006).

Series [1] is described as follows: in vivo. To be noted: rat.
Series [2] is described as follows: in vivo. The following applies: rat, po.

In the case of `Cn1nc(CC(CC(=O)O)c2ccc3c(c2)OCO3)cc1OCCc1ccc2c(n1)NCCC2` (configuration not stated), the half-life in series [1] was 4.9 h. In addition, the bioavailability in series [2] turned out to be 95%.
